The source made the active and inactive calls. No cut-off for these calls is given here.
What was measured:
[1] = target: T1, Dual specificity protein kinase CLK1 (Homo sapiens, UniProt P49759); assay: Inhibition of recombinant human CLK1 (130 to end residues) using ERMRPRKRQGSVR as substrate incubated for 40 mins in presence of [gamma-33ATP] by scintillation counting based radiometry assay
Target sequence in this assay (P49759 whole entry): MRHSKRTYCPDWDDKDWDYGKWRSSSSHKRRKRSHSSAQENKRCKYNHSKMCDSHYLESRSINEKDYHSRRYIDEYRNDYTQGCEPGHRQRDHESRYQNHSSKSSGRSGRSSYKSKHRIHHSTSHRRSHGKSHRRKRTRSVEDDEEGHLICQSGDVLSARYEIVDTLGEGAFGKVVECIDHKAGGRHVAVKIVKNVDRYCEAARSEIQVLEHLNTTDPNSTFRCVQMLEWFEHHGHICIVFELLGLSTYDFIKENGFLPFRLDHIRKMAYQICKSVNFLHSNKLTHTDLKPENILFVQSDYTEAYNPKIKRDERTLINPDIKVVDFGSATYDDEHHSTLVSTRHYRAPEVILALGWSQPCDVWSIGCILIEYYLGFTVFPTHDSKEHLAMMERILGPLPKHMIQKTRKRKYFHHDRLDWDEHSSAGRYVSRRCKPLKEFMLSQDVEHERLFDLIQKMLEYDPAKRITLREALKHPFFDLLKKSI

SK-OV-3 [2] = assay: Induction of autophagy in human SKOV-3 cells assessed as degradation of SQSTM1/p62 at 0.33 to 30 uM measured after 24 hrs by Western blot analysis; assay type: functional, cell-based; settings: dose 0.33-30 µM
[3] = target: Dual specificity tyrosine-phosphorylation-regulated kinase 1B (Homo sapiens, UniProt Q9Y463); assay: Inhibition of recombinant full length human DYRK1B using RRRFRPASPLRGPPK as substrate incubated for 40 mins in presence of [gamma-33ATP] by scintillation counting based radiometry assay
Dual specificity tyrosine-phosphorylation-regulated kinase 1B, sequence (Q9Y463 whole entry): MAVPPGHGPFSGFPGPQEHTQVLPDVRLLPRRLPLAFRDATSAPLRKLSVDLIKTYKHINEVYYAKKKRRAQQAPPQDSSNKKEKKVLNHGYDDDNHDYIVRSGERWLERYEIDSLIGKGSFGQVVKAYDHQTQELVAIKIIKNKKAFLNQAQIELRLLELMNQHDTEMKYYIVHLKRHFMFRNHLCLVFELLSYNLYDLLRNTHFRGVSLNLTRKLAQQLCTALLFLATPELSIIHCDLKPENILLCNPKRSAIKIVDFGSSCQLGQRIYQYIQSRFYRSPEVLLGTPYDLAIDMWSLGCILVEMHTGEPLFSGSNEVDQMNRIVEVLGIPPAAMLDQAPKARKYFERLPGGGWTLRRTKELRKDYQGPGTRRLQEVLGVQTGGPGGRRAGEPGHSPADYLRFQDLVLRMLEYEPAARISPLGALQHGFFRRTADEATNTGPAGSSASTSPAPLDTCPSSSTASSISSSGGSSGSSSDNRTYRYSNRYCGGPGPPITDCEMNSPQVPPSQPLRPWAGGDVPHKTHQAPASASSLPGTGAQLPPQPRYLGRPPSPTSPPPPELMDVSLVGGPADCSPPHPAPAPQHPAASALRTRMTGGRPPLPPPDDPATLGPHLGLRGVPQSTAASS

SK-OV-3 [4] = assay: Induction of autophagy in human SKOV-3 cells assessed as increase in LC3-II to LC3-I ratio incubated for 24 hrs by Western blot analysis; assay type: functional, cell-based; settings: dose 0.33-30 µM
[5] = target: T1, Dual specificity protein kinase CLK1; assay: Inhibition of CLK1 in human SKOV-3 cells assessed as decrease in SRp75 phosphorylation after 24 hrs by Western blot analysis; assay type: cell-based; settings: SK-OV-3, dose 0.33-30 µM
Target sequence in this assay (P49759 whole entry, looked up): as the sequence (P49759 whole entry) above

[6] = target: Dual specificity protein kinase CLK2 (Homo sapiens, UniProt P49760); assay: Inhibition of recombinant human CLK2 (138 to end residues) using YRRAAVPPSPSLSRHSSPHQS(p)EDEEE as substrate incubated for 40 mins in presence of [gamma-33ATP] by scintillation counting based radiometry assay
Dual specificity protein kinase CLK2, sequence (P49760 whole entry): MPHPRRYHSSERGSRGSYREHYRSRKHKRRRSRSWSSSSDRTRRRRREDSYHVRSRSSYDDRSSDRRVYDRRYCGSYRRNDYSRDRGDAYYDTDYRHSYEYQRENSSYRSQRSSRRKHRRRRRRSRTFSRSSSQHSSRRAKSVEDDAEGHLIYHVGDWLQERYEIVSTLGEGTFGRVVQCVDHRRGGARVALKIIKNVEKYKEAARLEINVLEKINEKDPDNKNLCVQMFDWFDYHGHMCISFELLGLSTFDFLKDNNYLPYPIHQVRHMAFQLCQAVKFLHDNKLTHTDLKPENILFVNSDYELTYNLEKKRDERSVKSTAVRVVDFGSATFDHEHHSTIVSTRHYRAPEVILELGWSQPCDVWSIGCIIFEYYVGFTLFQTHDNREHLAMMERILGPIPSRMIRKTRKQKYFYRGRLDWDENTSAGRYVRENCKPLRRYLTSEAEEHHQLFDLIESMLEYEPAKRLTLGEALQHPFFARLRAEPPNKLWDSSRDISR

SK-OV-3 [7] = assay: Induction of autophagy in human SKOV-3 cells transfected with Ad-mRFP-GFP-LC3 assessed as induction of autolysosomes formation by measuring increase in number of red LC3 puncta at 0.1 uM measured after 24 hrs by confocal microscopic analysis; assay type: functional, cell-based
SK-OV-3 [8] = assay: Induction of autophagy in human SKOV-3 cells transfected with Ad-mRFP-GFP-LC3 assessed as induction of autophagosomes formation by measuring increase in number of yellow LC3 puncta at 0.1 uM measured after 24 hrs by confocal microscopic analysis; assay type: functional, cell-based
[9] = target: T1, Dual specificity protein kinase CLK1; assay: Inhibition of CLK1 in human SKOV-3 cells assessed as decrease in SRp55 phosphorylation after 24 hrs by Western blot analysis; assay type: cell-based; settings: SK-OV-3, dose 0.33-30 µM
Target sequence in this assay (P49759 whole entry, looked up): as the sequence (P49759 whole entry) above

[10] = target: Dual specificity protein kinase CLK4 (Homo sapiens, UniProt Q9HAZ1); assay: Inhibition of recombinant human CLK4 (128 to end residues) using YRRAAVPPSPSLSRHSSPHQS(p)EDEEE as substrate incubated for 40 mins in presence of [gamma-33ATP] by scintillation counting based radiometry assay
Dual specificity protein kinase CLK4, sequence (Q9HAZ1 whole entry): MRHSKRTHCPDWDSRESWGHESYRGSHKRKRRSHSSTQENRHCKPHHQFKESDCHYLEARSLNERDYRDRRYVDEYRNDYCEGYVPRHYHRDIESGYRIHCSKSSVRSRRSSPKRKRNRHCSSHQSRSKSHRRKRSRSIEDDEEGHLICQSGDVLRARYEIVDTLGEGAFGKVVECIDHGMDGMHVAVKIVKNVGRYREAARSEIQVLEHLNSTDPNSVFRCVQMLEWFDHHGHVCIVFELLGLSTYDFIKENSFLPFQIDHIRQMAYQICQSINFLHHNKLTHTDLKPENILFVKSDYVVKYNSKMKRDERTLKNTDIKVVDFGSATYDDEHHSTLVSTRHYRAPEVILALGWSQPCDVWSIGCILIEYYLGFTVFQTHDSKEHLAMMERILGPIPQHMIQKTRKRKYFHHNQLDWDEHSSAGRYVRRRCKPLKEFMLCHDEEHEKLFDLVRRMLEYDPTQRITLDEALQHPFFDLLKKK

SK-OV-3 [11] = assay: Induction of autophagic flux in human SKOV-3 cells assessed as LC3-II protein level at 10 uM after 24 hrs in presence of V-ATPase inhibitor bafilomycin-A1 by Western blot analysis; assay type: functional, cell-based
[12] = target: T1, Dual specificity protein kinase CLK1; assay: Inhibition of CLK1 in human SKOV-3 cells assessed as redistribution of SR protein from nucleoplasm to nuclear speckles at 0.1 uM after 24 hrs by immunofluorescence assay; assay type: cell-based; settings: SK-OV-3
Target sequence in this assay (P49759 whole entry, looked up): as the sequence (P49759 whole entry) above

SK-OV-3 [13] = assay: Induction of autophagic flux in human SKOV-3 cells assessed as SQSTM1/p62 protein level at 10 uM after 24 hrs in presence of V-ATPase inhibitor bafilomycin-A1 by Western blot analysis; assay type: functional, cell-based
[14] = target: Dual specificity tyrosine-phosphorylation-regulated kinase 1A (Homo sapiens, UniProt Q13627); assay: Inhibition of recombinant full length human DYRK1A using RRRFRPASPLRGPPK as substrate incubated for 40 mins in presence of [gamma-33ATP] by scintillation counting based radiometry assay
[15] = target: Dual specificity protein kinase CLK3 (Homo sapiens, UniProt P49761); assay: Inhibition of recombinant full length human CLK3 using ERMRPRKRQGSVR as substrate incubated for 40 mins in presence of [gamma-33ATP] by scintillation counting based radiometry assay
Dual specificity protein kinase CLK3, sequence (P49761 whole entry): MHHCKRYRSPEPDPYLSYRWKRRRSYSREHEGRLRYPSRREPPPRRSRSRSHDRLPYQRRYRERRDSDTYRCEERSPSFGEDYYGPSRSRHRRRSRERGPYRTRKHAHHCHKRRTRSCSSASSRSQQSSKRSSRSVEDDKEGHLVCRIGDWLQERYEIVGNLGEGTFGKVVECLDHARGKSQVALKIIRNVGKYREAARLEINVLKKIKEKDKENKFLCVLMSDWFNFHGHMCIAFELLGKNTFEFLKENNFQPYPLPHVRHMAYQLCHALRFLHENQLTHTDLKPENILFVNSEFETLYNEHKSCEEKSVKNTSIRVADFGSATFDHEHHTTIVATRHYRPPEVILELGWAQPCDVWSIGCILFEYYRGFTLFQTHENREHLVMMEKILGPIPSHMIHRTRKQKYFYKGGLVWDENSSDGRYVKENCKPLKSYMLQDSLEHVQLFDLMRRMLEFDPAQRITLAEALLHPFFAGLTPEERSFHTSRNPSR

SK-OV-3 [16] = assay: Induction of autophagy in human SKOV-3 cells assessed as increase in LC3-II protein level incubated for 24 hrs by Western blot analysis; assay type: functional, cell-based; settings: dose 0.33-30 µM

| SMILES | IC50 [1] [nM] | other results |
| --- | --- | --- |
| C[C@@H](NC(=O)c1cnc2ccc(-c3cnn(C)c3)cn12)c1ccccc1 | 14 |  |
| C[C@@H](NC(=O)c1cnc2ccc(-c3ccc4ncccc4c3)cn12)c1ccccc1 | 6 |  |
| COc1ccc(CNC(=O)c2cnc3ccc(-c4ccc5ncccc5c4)cn23)cc1 | 4 | Activity (SK-OV-3 [2]): Active; IC50 [3]: 148 nM; Activity (SK-OV-3 [4]): Dose-Dependent Effect; inhibition [5]: Dose-Dependent Effect; IC50 [6]: 50 nM; Activity (SK-OV-3 [7]): Active; Activity (SK-OV-3 [8]): Active; inhibition [9]: Dose-Dependent Effect; IC50 [10]: 17 nM; Activity (SK-OV-3 [11]): inactive; inhibition [12]: Active; Activity (SK-OV-3 [13]): inactive; IC50 [14]: 10 nM; IC50 [15]: > 10 µM; Activity (SK-OV-3 [16]): Dose-Dependent Effect |
| C[C@H](NC(=O)c1cnc2ccc(-c3cnn(C)c3)cn12)c1ccc(Cl)cc1 | 399 |  |
| COc1ccc(CNC(=O)c2cnc3ccc(-c4ccc5ccccc5c4)cn23)cc1 | > 10000 |  |
| CNC(=O)c1cnc2ccc(-c3cnn(C)c3)cn12 | 23 |  |
| C[C@@H](NC(=O)c1cnc2ccc(-c3cnn(C)c3)cn12)c1ccc(Cl)cc1 | 11 |  |
| COc1ccc(CNC(=O)c2cnc3ccc(-c4c(C)noc4C)cn23)cc1 | > 10000 |  |
| COc1ccc(CNC(=O)c2cnc3ccc(-c4ccc5ocnc5c4)cn23)cc1 | 122 |  |
| COc1ccc([C@@H](C)NC(=O)c2cnc3ccc(-c4ccc5ncccc5c4)cn23)cc1 | 6 |  |
| COc1ccc(NC(=O)c2cnc3ccc(-c4cnn(C)c4)cn23)cc1 | 7 |  |
| COc1ccc(CNC(=O)c2cnc3ccc(-c4cnn(C)c4)cn23)cc1 | 6 |  |
| CC(C)Oc1ccc(CNC(=O)c2cnc3ccc(-c4cnn(C)c4)cn23)cc1 | 8 |  |
| Cn1cc(-c2ccc3ncc(C(=O)NCc4ccccc4)n3c2)cn1 | 12 |  |
| C[C@H](NC(=O)c1cnc2ccc(-c3ccc4ncccc4c3)cn12)c1ccccc1 | 52 |  |
| COc1ccc([C@H](C)NC(=O)c2cnc3ccc(-c4ccc5ncccc5c4)cn23)cc1 | 44 |  |
| COc1ccc(NNC(=O)c2cnc3ccc(-c4ccc5ncccc5c4)cn23)cc1 | 5 |  |
| C[C@H](NC(=O)c1cnc2ccc(-c3cnn(C)c3)cn12)c1ccccc1 | 296 |  |
| COc1cccc(CNC(=O)c2cnc3ccc(-c4cnn(C)c4)cn23)c1 | 11 |  |
| COc1ccc([C@H](C)NC(=O)c2cnc3ccc(-c4cnn(C)c4)cn23)cc1 | 809 |  |
| COc1ccc([C@@H](C)NC(=O)c2cnc3ccc(-c4cnn(C)c4)cn23)cc1 | 8 |  |
| COc1ccc(CNC(=O)c2cnc3ccc(-c4ccncc4)cn23)cc1 | 13 |  |
| Cn1cc(-c2ccc3ncc(C(=O)NCc4ccc(Cl)cc4)n3c2)cn1 | 14 |  |
